Experimental data: ChEMBL document CHEMBL6121008, “New series of 3-pyridyl-1,3-thiazoles: In vitro and in vivo anti-Trypanosomatidae profile, in vitro and in silico mechanism of action approach” (Eur J Med Chem, 2025)
Calls of active or inactive are those of the source. No cut-off for these calls is given here.

How the values were obtained:
[1] = Selectivity index, ratio of CC50 for mouse L929 cells to IC50 for antiparasitic activity against trypomastigote and amastigote form of Trypanosoma cruzi Tulahuen expressing Escherichia coli beta-galactosidase infected in mouse L929 cells; format: toxicity; details: read-out: Selectivity Index
Leishmania amazonensis [2] = test: (§1) Antiparasitic activity against Leishmania amazonensis amastigote expressing Escherichia coli beta-galactosidase infected in mouse RAW264.7 cells assessed as reduction in parasitic growth using CPRG as substrate preincubated with compound for 24 hrs followed by substrate addition and measured after 2 to 6 hrs by Spectrophotometric analysis; format: functional, organism-based; details: Leishmania amazonensis, RAW264.7; read-out: IC50
Leishmania amazonensis [3] = test: as §1, with “WHOM/00 LTB 0016 promastigote” for “amastigote”, “beta-galactosidase” for “beta-galactosidase infected in mouse RAW264.7 cells”, “72” for “24”, “10 mins” for “2 to 6 hrs”; format: functional, organism-based
RAW264.7 [4] = test: Immunomodulatory activity in mouse RAW264.7 cells assessed as decrease in IL-10 production at 1 to 4 times IC50 incubated for 24 to 144 hrs by flow cytometric analysis; format: functional, cell-based; details: time 24-144 hrs
Trypanosoma cruzi [5] = test: (§2) Antiparasitic activity against amastigote form of Trypanosoma cruzi Tulahuen expressing Escherichia coli beta-galactosidase infected in mouse L929 cells assessed as reduction in parasitic growth using CPRG as substrate pretreated with compound for 96 hrs followed by substrate addition and measured after 16 to 20 hrs by Spectrophotometric analysis; format: functional, organism-based
Trypanosoma cruzi [6] = test: as §2, with “trypomastigote” for “amastigote”; format: functional, organism-based
Leishmania infantum [7] = test: as §1, with “infantum” for “amazonensis”; format: functional, organism-based
Trypanosoma cruzi [8] = test: Antiparasitic activity against trypomastigote form of Trypanosoma cruzi Y assessed as appearance of filamentous structures scattered across the membrane by Electron micrographic analysis; format: functional, organism-based
[9] = Acute toxicity in male Swiss-Webster mouse infected with Trypanosoma cruzi Y assessed as mortality at 5 to 200 mg/kg, po measured after 48 hrs; format: organism-based; details: in vivo, dose 5-200 mg/kg
RAW264.7 [10] = test: Immunomodulatory activity in mouse RAW264.7 cells assessed as decrease in TNF production at 1 to 4 times IC50 incubated for 24 to 144 hrs by flow cytometric analysis; format: functional, cell-based; details: time 24-144 hrs
Leishmania infantum [11] = test: Antiparasitic activity against Leishmania infantum MHOM/MA/67/ITMAP-263 promastigote expressing Escherichia coli beta-galactosidase assessed as reduction in parasitic growth using CPRG as substrate preincubated with compound for 72 hrs followed by substrate addition and measured after 10 mins by Spectrophotometric analysis; format: functional, organism-based
[12] = Cytotoxicity against mouse RAW264.7 cells assessed as inhibition of cell viability incubated for 48 hrs by MTT assay; format: toxicity, cell-based
[13] = Acute toxicity in female Swiss-Webster mouse infected with Trypanosoma cruzi Y assessed as mortality at 5 to 200 mg/kg, po measured after 48 hrs; format: organism-based; details: in vivo, dose 5-200 mg/kg
Cell membrane = test: Induction of cell membrane damage in trypomastigote form of Trypanosoma cruzi Y assessed as decrease in red fluorescence intensity incubated for 24 hrs by acridine orange staining based flow cytometric analysis; format: subcellular
[14] = Acute toxicity in female Swiss-Webster mouse infected with Trypanosoma cruzi Y assessed as side effects at 5 to 200 mg/kg, po measured after 48 hrs; format: organism-based; details: in vivo, dose 5-200 mg/kg
Trypanosoma cruzi [15] = test: Antiparasitic activity against trypomastigote form of Trypanosoma cruzi Y assessed as appearance of ruptured cells with cytoplasmic content leakage by Electron micrographic analysis; format: functional, organism-based
[16] = Acute toxicity in male Swiss-Webster mouse infected with Trypanosoma cruzi Y assessed as side effects at 5 to 200 mg/kg, po measured after 48 hrs; format: organism-based; details: in vivo, dose 5-200 mg/kg
[17] = Selectivity index, ratio of CC50 for mouse RAW264.7 cells to IC50 for antiparasitic activity against Leishmania infantum amastigote expressing Escherichia coli beta-galactosidase infected in mouse RAW264.7 cells; format: toxicity; details: read-out: Selectivity Index
Trypanosoma cruzi [18] = test: Antiparasitic activity against trypomastigote form of Trypanosoma cruzi Y assessed as presence of bubbles by Electron micrographic analysis; format: functional, organism-based
Trypanosoma cruzi [19] = test: Antiparasitic activity against trypomastigote form of Trypanosoma cruzi Y assessed as appearance of swollen cells with cytoplasmic content leakage by Electron micrographic analysis; format: functional, organism-based
RAW264.7 [20] = test: Immunomodulatory activity in mouse RAW264.7 cells assessed as increase in IL-6 production at 1 to 4 times IC50 incubated for 24 to 144 hrs by flow cytometric analysis; format: functional, cell-based; details: time 24-144 hrs
[21] = Toxicity in male Swiss mouse infected with Trypanosoma cruzi Y trypomastigotes assessed as mortality at 100 mg/kg/day, po pre-infected with parasite followed by compound addition and measured after 5 to 9 days relative to control; format: organism-based; details: in vivo, po, 100 mg/kg, time 5-9 day
[22] = Selectivity index, ratio of CC50 for mouse RAW264.7 cells to IC50 for antiparasitic activity against Leishmania amazonensis amastigote expressing Escherichia coli beta-galactosidase infected in mouse RAW264.7 cells; format: toxicity; details: read-out: Selectivity Index
[23] = Selectivity index, ratio of CC50 for mouse RAW264.7 cells to IC50 for antiparasitic activity against Leishmania infantum MHOM/MA/67/ITMAP-263 promastigote expressing Escherichia coli beta-galactosidase; format: toxicity; details: read-out: Selectivity Index
[24] = Cytotoxicity against mouse L929 cells assessed as inhibition of cell viability incubated for 96 hrs by MTT assay; format: toxicity, cell-based
Mitochondrial membrane = test: Induction of mitochondrial membrane depolarization in trypomastigote form of Trypanosoma cruzi Y at IC50 incubated for 24 hrs by Rhodamine 123 staining based flow cytometric analysis; format: cell membranes
Trypanosoma cruzi [25] = test: Antiparasitic activity against Trypanosoma cruzi Y trypomastigotes infected in male Swiss mouse assessed as reduction in parasitemia at 100 mg/kg/day, po pre-infected with parasite followed by compound addition and measured at 1 to 5 days post-infection by microscopic analysis; format: functional, organism-based; details: time 1-5 day
Trypanosoma cruzi [26] = test: Antiparasitic activity against trypomastigote form of Trypanosoma cruzi Y assessed as appearance of twisted bodies by Electron micrographic analysis; format: functional, organism-based
[27] = Selectivity index, ratio of CC50 for mouse RAW264.7 cells to IC50 for antiparasitic activity against Leishmania amazonensis WHOM/00 LTB 0016 promastigote expressing Escherichia coli beta-galactosidase; format: toxicity; details: read-out: Selectivity Index
[28] = Leishmania infantum, RAW264.7, read-out: IC50
[29] = Leishmania infantum, MHOM/MA/67/ITMAP-263, read-out: IC50
[30] = Leishmania amazonensis, WHOM/00 LTB 0016, read-out: IC50

| IC50 (Trypanosoma cruzi [5]) [µM] | IC50 (Trypanosoma cruzi [6]) [µM] | Structure (SMILES) | selectivity ratio [1] | IC50 (Leishmania amazonensis [2]) [µM] | IC50 (Leishmania infantum [7]; [28]) [µM] | IC50 (Leishmania infantum [11]; [29]) [µM] | CC50 at 48 h [12] [µM] | selectivity ratio [17] | selectivity ratio [22] | selectivity ratio [23] | CC50 at 96 h [24] [µM] | Activity (Trypanosoma cruzi [26]) | IC50 (Leishmania amazonensis [3]; [30]) [µM] | selectivity ratio [27] | further results |
| --- | --- | --- | --- | --- | --- | --- | --- | --- | --- | --- | --- | --- | --- | --- | --- |
| 3.4 | 3.4 | C/C(=N\N=c1\scc(-c2ccc(C)cc2)n1-c1ccccc1)c1cccnc1 | 2.1 | 7.3 | 16.1 | 14.8 | 18.7 | 1.2 | 2.6 | 1.3 | 7.3 |  | 4.4 | 4.2 |  |
| 5.7 | 5.7 | C/C(=N\N=c1\scc(-c2ccccc2)n1-c1ccccc1)c1cccnc1 | 2 | 13.5 | 8.9 | 31 | 29.4 | 3.3 | 2.2 | 0.9 | 11.6 |  | 15.4 | 1.9 |  |
| 3.9 | 3.9 | C/C(=N\N=c1/[nH]c(-c2ccc(C)cc2)cs1)c1cccnc1 | 75.1 | 33.1 |  |  | 25 |  | 0.8 |  | 293 | Dose-dependent-effect | > 324 | < 0.1 | IC50 (Leishmania infantum [7]; raw264.7): Not_active; IC50 (Leishmania infantum [11]): Not_active |
| 7.5 | 7.5 | C/C(=N\N=c1\scc(-c2ccc(F)cc2)n1-c1ccccc1)c1cccnc1 | 1.9 | 6.7 | 10.8 | 29.9 | 41.2 | 3.8 | 6.1 | 1.4 | 14.4 |  | 7.2 | 5.7 |  |
| < 0.2 | < 0.2 | COc1ccc(-c2cs/c(=N/N=C(\C)c3cccnc3)n2-c2ccccc2)cc1 | > 26 | 6 | 9.5 | 16.7 | 22 | 2.3 | 3.7 | 1.3 | 5.2 |  | 5.2 | 4.2 |  |
| 2.9 | 2.9 | C/C(=N\N=c1\scc(-c2ccc([N+](=O)[O-])cc2)n1-c1ccccc1)c1cccnc1 | 8.9 | 7.7 | 9.1 | 118 | 22.1 | 2.4 | 2.9 | 0.2 | 25.8 |  | 18.5 | 1.2 |  |
| 3.7 | 3.7 | C/C(=N\N=c1\scc(-c2ccc(F)cc2)n1C)c1cccnc1 | 4.2 | 17.4 | 12.5 | 21.1 | 15 | 1.2 | 0.9 | 0.7 | 15.6 |  | 32.7 | 0.5 |  |
| 2.9 | 2.9 | C/C(=N\N=c1\scc(-c2cccc([N+](=O)[O-])c2)n1-c1ccccc1)c1cccnc1 | 6.3 | 9.4 | 11.5 | 23.3 | > 240 | > 20.8 | > 25.6 | > 10.3 | 18.3 |  | 6.5 | > 37 |  |

| Structure (SMILES) | IC50 (Trypanosoma cruzi [5]) [µM] | IC50 (Trypanosoma cruzi [6]) [µM] | selectivity ratio [1] | IC50 (Leishmania amazonensis [2]) [µM] | IC50 (Leishmania infantum [7]; [28]) [µM] | IC50 (Leishmania infantum [11]; [29]) [µM] | CC50 at 48 h [12] [µM] | selectivity ratio [17] | selectivity ratio [22] | selectivity ratio [23] | CC50 at 96 h [24] [µM] | Activity (Trypanosoma cruzi [26]) | IC50 (Leishmania amazonensis [3]; [30]) [µM] | selectivity ratio [27] | further results |
| --- | --- | --- | --- | --- | --- | --- | --- | --- | --- | --- | --- | --- | --- | --- | --- |
| COc1ccc(-c2cs/c(=N/N=C(\C)c3cccnc3)[nH]2)cc1 | 0.3 | 0.3 | 64.7 | 7.7 | 92.6 | 174 | 16.6 | 0.2 | 2.2 | 0.1 | 19.4 | Dose-dependent-effect |  |  | IC50 (Leishmania amazonensis [3]): Not_active; Activity (RAW264.7 [4]): Active; Activity (Trypanosoma cruzi [8]): Dose-dependent-effect; Activity [9]: Non-toxic; Activity (RAW264.7 [10]): inactive; Activity [13]: Non-toxic; Activity (Cell membrane): Dose-dependent-effect; Activity [14]: Non-toxic; Activity (Trypanosoma cruzi [15]): Dose-dependent-effect; Activity [16]: Non-toxic; Activity (Trypanosoma cruzi [18]): Dose-dependent-effect; Activity (Trypanosoma cruzi [19]): Dose-dependent-effect; Activity (RAW264.7 [20]): Active; Activity [21]: Toxic; Activity (Mitochondrial membrane): Active; Activity (Trypanosoma cruzi [25]): inactive |
| C/C(=N\Nc1nc(-c2ccccc2)cs1)c1cccnc1 | 0.4 | 0.4 | 531 | 9.9 | 103 | 5.4 | 18.3 | 0.2 | 1.9 | 3.4 | 212 | Dose-dependent-effect | 128 | 0.1 | Activity (RAW264.7 [4]): Active; Activity (Trypanosoma cruzi [8]): Dose-dependent-effect; Activity [9]: Non-toxic; Activity (RAW264.7 [10]): Active; Activity [13]: Non-toxic; Activity (Cell membrane): Dose-dependent-effect; Activity [14]: Non-toxic; Activity (Trypanosoma cruzi [15]): Dose-dependent-effect; Activity [16]: Non-toxic; Activity (Trypanosoma cruzi [18]): Dose-dependent-effect; Activity (Trypanosoma cruzi [19]): Dose-dependent-effect; Activity (RAW264.7 [20]): Active; Activity [21]: Toxic; Activity (Mitochondrial membrane): Active; Activity (Trypanosoma cruzi [25]): inactive |
